Data from US9681664B2, “Macrocyclic picolinamides as fungicides” (Dow Agrosciences LLC, priority 2012, dated 2017).
Where two headings read alike, the source gives them in different places.

Legend:
Assay type in all cases: in vivo
[1] = system: Puccinia triticina; Synonym: Puccinia recondite f. sp. tritici; test: Wheat brown rust (PUCCRT) disease control on wheat seedlings; settings: Puccinia triticina, High volume application, 100 ppm
Procedure, shortened: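 Yuma wheat grown to first fully emerged leaf was inoculated with Puccinia triticina spore suspension either before or after fungicide treatment, held overnight at 22° C. and 100% RH in darkness, then kept at 24° C. Fungicide applied by booth sprayer to run-off (acetone/water, 110 ppm Triton X-100) or as EC by track spray.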

[2] = system: Mycosphaerella graminicola; Anamorph: Septoria tritici; test: Leaf blotch of wheat (SEPTTR) disease control on wheat seedlings; settings: Zymoseptoria tritici, High volume application, 100 ppm
Procedure, shortened: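 Protective or curative format: Septoria tritici inoculation either preceded or followed fungicide application to first-leaf Yuma wheat. Severity scored 0–100%; control expressed versus untreated.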

Uncinula necator = test: Grape powdery mildew (UNCINE) disease control; settings: Erysiphe necator, 24 h, High volume application, 1 Day Protectant, read-out: UNCINE 1 DP disease control
Method: Technical grades of materials were dissolved in acetone, which were then mixed with nine volumes of water containing 110 ppm Triton X-100. The fungicide solutions were applied onto wheat seedlings using an automated booth sprayer to run-off. All sprayed plants were allowed to air dry prior to further handling. All fungicides were evaluated using the aforementioned method for their activity vs. all target diseases. Wheat leaf blotch and brown rust activity were also evaluated using track spray applications, in which case the fungicides were formulated as EC formulations, containing 0.1% Trycol 5941 in the spray solutions. Grape seedlings (variety Carignane) were grown in soil-less Metro mix, with one plant per pot, and used in the test when approximately one month old. Plants were inoculated 24 hr after fungicide treatment by shaking spores from infected leaves over test plants. Plants were maintained in a greenhouse set at 20° C. until disease was fully developed. Fungicide formulation, application and disease assessment on the sprayed leaves followed the procedures as described in the Example A.

Cercospora beticola = test: Leaf spot of sugar beets (CERCBE) disease control; settings: 24 h, 1 Day Protectant, high volume, read-out: Disease Control CERCBE 1 DP
Method: Technical grades of materials were dissolved in acetone, which were then mixed with nine volumes of water containing 110 ppm Triton X-100. The fungicide solutions were applied onto wheat seedlings using an automated booth sprayer to run-off. All sprayed plants were allowed to air dry prior to further handling. All fungicides were evaluated using the aforementioned method for their activity vs. all target diseases. Wheat leaf blotch and brown rust activity were also evaluated using track spray applications, in which case the fungicides were formulated as EC formulations, containing 0.1% Trycol 5941 in the spray solutions. Sugar beet plants (variety HH88) were grown in soil-less Metro mix and trimmed regularly to maintain a uniform plant size prior to test. Plants were inoculated with a spore suspension 24 hr after fungicide treatments. Inoculated plants were kept in a dew chamber at 22° C. for 48 hr then incubated in a greenhouse set at 24° C. under a clear plastic hood with bottom ventilation until disease symptoms were fully expressed. Fungicide formulation, application and disease assessment on the sprayed leaves followed the procedures as described in the Example A.

[3] = system: Magnaporthe grisea; Anamorph: Pyricularia oryzae; test: whole plant or invertebrate; settings: 24 h, read-out: PYRIOR 1 DP disease control
Phakopsora pachyrhizi = test: Asian soybean rust (PHAKPA) disease control; settings: topical, high volume
Procedure, shortened: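 Compounds in acetone diluted with nine volumes water containing 0.011% Tween 20, sprayed to run-off on two-week-old Williams 82 soybean seedlings, inoculated 3 days before or 1 day after treatment. Plants held 24 h in dark dew room at 22 °C, 100% RH, then at 23 °C; disease severity scored on sprayed leaves.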

[4] = system: Blumeria graminis f. sp. hordei; Synonym: Erysiphe graminis f. sp. hordei; test: Barley powdery mildew (ERYSGH) disease control; settings: 24 h, 1 Day Protectant, high volume, read-out: Disease Control ERYSGH 1 DP
Method: Technical grades of materials were dissolved in acetone, which were then mixed with nine volumes of water containing 110 ppm Triton X-100. The fungicide solutions were applied onto wheat seedlings using an automated booth sprayer to run-off. All sprayed plants were allowed to air dry prior to further handling. All fungicides were evaluated using the aforementioned method for their activity vs. all target diseases. Wheat leaf blotch and brown rust activity were also evaluated using track spray applications, in which case the fungicides were formulated as EC formulations, containing 0.1% Trycol 5941 in the spray solutions. Barley seedlings (variety Harrington) were propagated in soil-less Metro mix, with each pot having 8 to 12 plants, and used in the test when first leaf was fully emerged. Test plants were inoculated by dusting with infected stock plants 24 hr after fungicide treatments. After inoculation the plants were kept in a greenhouse set at 20° C. for disease to develop. Fungicide formulation, application and disease assessment on the sprayed leaves followed the procedures as described in the Example A.

[5] = 24 h, 1 Day Protectant, read-out: PUCCRT 1DP disease control
[6] = 72 h, 3 Day Curative, read-out: PUCCRT 3DC disease control
[7] = 24 h, 1 Day Protectant, read-out: SEPTTR 1DP disease control
[8] = 72 h, 3 Day Curative, read-out: SEPTTR 3DC disease control
[9] = 24 h, 1 Day Protectant, read-out: Disease Control PHAKPA 1DP
[10] = 72 h, 3 Day Curative, read-out: Disease Control PHAKPA 3DC

SMILES	pest or weed control at 100 ppm [1, 5] [%]	pest or weed control at 100 ppm [1, 6] [%]	pest or weed control at 100 ppm [2, 7] [%]	pest or weed control at 100 ppm [2, 8] [%]	pest or weed control at 100 ppm (Uncinula necator) [%]	pest or weed control at 100 ppm (Cercospora beticola) [%]	pest or weed control at 100 ppm [3] [%]	pest or weed control at 25 ppm (Phakopsora pachyrhizi; [9]) [%]	pest or weed control at 25 ppm (Phakopsora pachyrhizi; [10]) [%]	pest or weed control at 100 ppm [4] [%]
COc1ccnc(C(=O)N[C@H]2CCC[C@H](Oc3ccccc3)[C@@H](Oc3ccccc3)[C@H](C)OC2=O)c1OCOC(C)=O [F20]	80 to 100	80 to 100	80 to 100	80 to 100	0 to 80	80 to 100	80 to 100	80 to 100	80 to 100	0 to 80
COc1ccnc(C(=O)N[C@H]2CCC[C@H](OCC(C)C)[C@@H](Oc3ccccc3)[C@H](C)OC2=O)c1OCOC(C)=O [F26]	80 to 100	80 to 100	80 to 100	80 to 100	0 to 80	80 to 100		80 to 100	80 to 100	
COc1ccnc(C(=O)N[C@H]2CCC[C@H](Oc3ccccc3)[C@@H](OCC(C)C)[C@H](C)OC2=O)c1OCOC(C)=O [F28]	80 to 100	80 to 100	80 to 100	80 to 100	0 to 80	80 to 100	80 to 100	80 to 100	0 to 80	80 to 100
COc1ccnc(C(=O)N[C@H]2CCC[C@H](OCC(C)C)[C@@H](OCC(C)C)[C@H](C)OC2=O)c1OCOC(C)=O [F29]	80 to 100	80 to 100	80 to 100	80 to 100	80 to 100	80 to 100	80 to 100	80 to 100		80 to 100
COc1ccnc(C(=O)N[C@H]2CCC[C@H](OCc3ccccc3)[C@@H](OCc3ccccc3)[C@H](C)OC2=O)c1OCOC(C)=O [F30]	80 to 100	80 to 100	80 to 100	0 to 80	0 to 80	0 to 80	80 to 100	80 to 100	0 to 80	0 to 80
COc1ccnc(C(=O)N[C@H]2CCC[C@H](OCc3ccccc3)[C@@H](Oc3ccccc3)[C@H](C)OC2=O)c1OCOC(C)=O [F31]	80 to 100	80 to 100	80 to 100	80 to 100	0 to 80	80 to 100	80 to 100			0 to 80
COc1ccnc(C(=O)N[C@H]2CCC[C@H](OCC(C)C)[C@@H](Oc3ccccc3)[C@H](C)OC2=O)c1OCOC(=O)C(C)C [F34]	80 to 100	80 to 100	80 to 100	80 to 100	0 to 80	80 to 100	80 to 100	80 to 100	80 to 100	0 to 80
COc1ccnc(C(=O)N[C@H]2CCC[C@H](Oc3ccccc3)[C@@H](OCC(C)C)[C@H](C)OC2=O)c1OCOC(=O)C(C)C [F35]	80 to 100	80 to 100	80 to 100	80 to 100	80 to 100	80 to 100	80 to 100	80 to 100		80 to 100
COc1ccnc(C(=O)N[C@H]2CCC[C@H](Oc3ccccc3)[C@@H](Oc3ccccc3)[C@H](C)OC2=O)c1OCOC(=O)C(C)C [F36]	80 to 100	80 to 100	80 to 100	80 to 100	0 to 80	80 to 100	80 to 100	80 to 100	80 to 100	0 to 80
COCCC(=O)Oc1c(OC)ccnc1C(=O)N[C@H]1CCC[C@H](Oc2ccccc2)[C@@H](OCCCc2ccccc2)[C@H](C)OC1=O [F132]	80 to 100	80 to 100	80 to 100	80 to 100	0 to 80	0 to 80	0 to 80			0 to 80
COc1ccnc(C(=O)N[C@H]2CCC[C@H](OCCCc3ccccc3)[C@@H](Oc3ccccc3)[C@H](C)OC2=O)c1OC(C)=O [F134]	80 to 100	80 to 100	80 to 100	80 to 100	0 to 80	80 to 100	80 to 100			0 to 80
COc1ccc(O[C@H]2CCC[C@H](NC(=O)c3nccc(OC)c3OCOC(=O)C(C)C)C(=O)O[C@@H](C)[C@@H]2OC2CCCC2)cc1 [F169]	80 to 100	80 to 100	80 to 100	80 to 100	0 to 80	80 to 100	80 to 100			0 to 80
COc1ccnc(C(=O)N[C@H]2CCC[C@H](OCCCC(F)(F)F)[C@@H](OC3CCCC3)[C@H](C)OC2=O)c1OCOC(=O)C(C)C [F171]	80 to 100	80 to 100	80 to 100	80 to 100	0 to 80	80 to 100	80 to 100			0 to 80
COc1ccnc(C(=O)N[C@H]2CCC[C@H](OCCCC(F)(F)F)[C@@H](OC3CCCC3)[C@H](C)OC2=O)c1OC(C)=O [F173]	80 to 100	80 to 100	80 to 100	80 to 100	0 to 80	80 to 100	80 to 100			0 to 80
